Test results: EP4582418A1, “CRYSTALLINE FORM OF QUINOLINE DERIVATIVE INHIBITOR, PREPARATION METHOD THEREFOR AND USE THEREOF” (TransThera Sciences (Nanjing), Inc., priority 2022, dated 2024)

Experiments:
[1] = target: T1, H1299 cell pAXL (Homo sapiens, UniProt P30530); experiment: Inhibitory activity on cell pAXL (Western Blot, hGAS6 stimulation); format: cell-based; conditions: H1299 cells, 60 min compound then hGAS6 200 ng/mL 60 min
T1 construct: endogenous in cells; host or cells: H1299
T1 sequence (P30530 26-894): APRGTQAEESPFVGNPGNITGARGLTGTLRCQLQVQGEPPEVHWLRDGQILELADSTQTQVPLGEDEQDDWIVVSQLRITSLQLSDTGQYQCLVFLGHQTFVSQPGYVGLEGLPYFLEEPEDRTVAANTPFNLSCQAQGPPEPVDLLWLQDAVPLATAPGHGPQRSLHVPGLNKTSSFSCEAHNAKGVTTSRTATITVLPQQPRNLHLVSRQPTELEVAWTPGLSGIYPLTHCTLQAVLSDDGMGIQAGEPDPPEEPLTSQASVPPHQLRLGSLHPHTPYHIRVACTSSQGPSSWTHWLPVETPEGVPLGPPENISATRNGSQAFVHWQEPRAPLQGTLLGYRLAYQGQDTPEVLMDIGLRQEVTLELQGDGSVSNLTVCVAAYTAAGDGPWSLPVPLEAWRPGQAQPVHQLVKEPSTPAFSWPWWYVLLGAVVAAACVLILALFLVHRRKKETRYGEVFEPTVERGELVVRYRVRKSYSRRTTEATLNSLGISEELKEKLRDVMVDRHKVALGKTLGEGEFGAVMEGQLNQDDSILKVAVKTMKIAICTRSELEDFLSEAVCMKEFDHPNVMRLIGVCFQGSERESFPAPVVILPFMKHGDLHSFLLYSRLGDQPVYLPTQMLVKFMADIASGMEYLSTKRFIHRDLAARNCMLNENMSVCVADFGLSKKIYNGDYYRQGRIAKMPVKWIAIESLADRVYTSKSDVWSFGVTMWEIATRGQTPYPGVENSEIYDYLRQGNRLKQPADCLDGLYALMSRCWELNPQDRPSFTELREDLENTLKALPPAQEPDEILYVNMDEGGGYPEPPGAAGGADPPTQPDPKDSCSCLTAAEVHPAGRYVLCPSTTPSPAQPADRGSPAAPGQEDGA
Procedure: H1299 is a non-small cell lung cancer cell line.
Test substance: the crystal form of the methanesulfonate of the compound of formula (I) of the present disclosure, having the structure shown above.
Test instruments: protein electrophoresis apparatus (Bio Rad), membrane transfer apparatus (Bio Rad), exposure apparatus (Tanon), CO2 cell incubator (Thermo), and the like.
H1299 cells were inoculated into a 6-well plate (containing 10% FBS 1640 medium, 5 × 10^5 cells/well) and adherently cultivated at 37 °C with 5% CO2 for 18 h. The cells were starved overnight, and different concentrations of the compound were added. The final compound concentrations were 0.37 nM, 1.1 nM, 3.3 nM, 10 nM, and 30 nM, with the final DMSO content in each compound well being 1 ‰. The negative control well contained medium with 1‰ DMSO. The cells were incubated at 37 °C with 5% CO2 for 60 min, and then hGAS6 (R&D, final concentration: 200 ng/mL) was added to each well. The cells were incubated for another 60 min, and then the total protein of the cells was extracted for a Western Blot experiment to assay the inhibitory activity of the compound on cell pAXL.

[2] = PK evaluation of crystal forms in rats; format: in vivo
Procedure: The experimental crystal forms I and II of the methanesulfonate of the compound of formula (I) were each prepared into a suspension solution with 0.5% HPMC. The compound solutions were intragastrically administered to SD rats at a dose of 60 mg/kg. Blood samples were collected at time points of 15 min, 30 min, 1 h, 2 h, 4 h, 6 h, 8 h, 24 h, 48 h, 72 h, and 96 h after administration.
The animals were fixed, with tails warmed in a water bath 10 min before each sampling time point. About 100 µL of blood was collected via the tail vein, and the blood samples were collected in anticoagulation tubes containing EDTA-K2. The blood samples were then centrifuged at 8,000 rpm for 6 min at 4 °C to give plasma samples. The plasma samples were prepared within 30 min after blood collection. The plasma samples were stored in a refrigerator at -80 °C before the test.
The sample to be tested was taken out from the -80 °C refrigerator, naturally thawed at room temperature, and vortexed for 5 min. 20 µL of plasma sample was precisely pipetted to a 1.5 mL centrifuge tube, and 200 µL of internal standard working solution (a solution of tolbutamide in methanol, 100 ng/mL) was added. The resulting mixture was thoroughly mixed, vortexed for 5 min, and centrifuged at 12,000 rpm for 5 min. 50 µL of supernatant was precisely pipetted to a 96-well plate pre-loaded with 150 µL of water per well, and the resulting mixture was vortexed for 5 min and then used for LC-MS/MS analysis.
The concentrations of the test samples were calculated by Analyst 1.6.3 from AB Sciex. Parameters such as mean, standard deviation, and coefficient of variation (excluding those output directly by Analyst 1.6.3) were calculated by Microsoft Excel. PK parameters were calculated by Pharsight Phoenix 6.1 software NCA (Tmax was in median).

[3] = Solubility in FaSSIF (pH 6.5) and FeSSIF (pH 5.0) buffer solutions; format: physicochemical
Procedure: Test substances: the crystal forms I, II, III, and IV of the methanesulfonate of the compound of formula (I).
• 1) 0.42 g of NaOH, 3.44 g of anhydrous NaH2PO4, and 6.19 g of NaCl were dissolved in about 0.9 L of pure water; • 2) the pH was adjusted to 6.5 using 1 N NaOH or 1 N HCl, and the buffer solution was supplemented to the volume of 1 L with pure water at room temperature; • 3) 2.24 g of FaSSIF powder was added to about 0.5 L of the buffer solution, and the mixture was stirred until the powder was completely dissolved; the resulting solution was supplemented to the volume of 1 L with the buffer solution at room temperature, and after being left to stand for 2 h, it was ready for use.
• 1) 4.04 g of NaOH, 8.65 g of glacial acetic acid, and 11.87 g of NaCl were dissolved in about 0.9 L of pure water; • 2) the pH was adjusted to 5.0 using 1 N NaOH or 1 N HCl, and the buffer solution was supplemented to the volume of 1 L with pure water at room temperature; • 3) 11.2 g of FeSSIF powder was added to about 0.5 L of the buffer solution, and the mixture was stirred until the powder was completely dissolved; the resulting solution was supplemented to the volume of 1 L with the buffer solution at room temperature, and after being left to stand for 2 h, it was ready for use.
An appropriate amount of each test substance was placed into separate 10 mL PE tubes, and FaSSIF (pH 6.5) buffer solution and FeSSIF (pH 5.0) buffer solution, each 10 mL, were added into the tubes, respectively. The tubes were then placed in a constant temperature water bath shaker and shaken at 37 °C for 24 h. After 24 h, samples were collected and centrifuged. The supernatants were diluted, and the solubility of the supernatants was measured.

IC50 [1]: < 0.37 nM | λ_z ([2]; SD rats, PO 60 mg/kg, n = 3, suspension in 0.5% HPMC): 0.018 h⁻¹ | AUC(0-t) ([2]; SD, rat, plasma, po, 60 mg/kg, 0-96 h, n = 3): 4020 µg·h/mL | Tmax ([2]; SD, rat, plasma, po, 60 mg/kg, median, n = 3, read-out: Tmax): 8 h | Cmax ([2]; SD, rat, plasma, po, 60 mg/kg, n = 3, read-out: Cmax): 69 µg/mL | tz1/2 ([2]; terminal half-life, SD rats, PO 60 mg/kg, n = 3): 38.6 h | 24-hour solubility in buffer solutions with different pH values pH6.5 ([3]; FaSSIF (pH 6.5), 37 °C, shaken 24 h): 0.052 mg/mL | 24-hour solubility in buffer solutions with different pH values pH5.0 ([3]; FeSSIF (pH 5.0), 37 °C, shaken 24 h): 0.29 mg/mL | solubility compared with the compound of formula (I) ([3]; test solutions at pH 5.0 and pH 6.5): significantly improved
Structure (SMILES): COc1cc2nccc(Oc3ccc(NC(=O)c4nn(C(C)C)cc(-c5ccc(F)cc5)c4=O)nc3)c2cc1OC [Crystal form I, N-(5-((6,7-dimethoxyquinolin-4-yl)oxy)pyridin-2-yl)-5-(4-fluorophenyl)-1-isopropyl-4-oxo-1,4-dihydropyridazine-3-carboxamide]
